Columns and labels:
ex vivo porcine brains = settings: contrast agent infusion, literature; cited from earlier work
excised pig brains = system: excised pig brains
Description: The volume of solution that leaked into the ventricles was segmented into a separate mask (green).
In recent studies (see e.g. FIG. 62A-FIG. 62C) E. Y. Elenes et al., Journal of Engineering and Science in Medical Diagnostics and Therapy, 2020), the arborizing catheter, comprising six infusion ports, was compared to a reflux-preventing single-port catheter. Infusions of iohexol at a flow rate of 1 μL/min/microneedle were performed, using the arborizing catheter on one hemisphere and a single-port catheter on the contralateral hemisphere of excised pig brains. The volume dispersed (Va) of the contrast agent was quantified for each catheter using standard techniques (G. P. Mazzara, et al., International Journal of Radiation Oncology Biology Physics, 2004; and M. F. Dempsey, et al., American Journal of Neuroradiology, 2005).

## CC(=O)N(CC(O)CO)c1c(I)c(C(=O)NCC(O)CO)c(I)c(C(=O)NCC(O)CO)c1I (centres unmarked) [iohexol]
Ex vivo porcine brains
  voxels with a concentration between 10 and 15%: ~40%
Excised pig brains
  Vd, arborizing catheter relative to single-port catheter: approximately 6 times
